Several values for one entry are separate records, joined by “and”; a condition that tells them apart may be missing. Identical values can stand only once. Like-named read-outs stand apart in the source and are kept apart here. Each block holds one molecule with its values, some of them ahead of it.
Assays:
[1] = biological target: T1, synthetic peptide, Aβ (10-43) (Homo sapiens, UniProt P05067); assay: Inhibition of [14C]Chrysamine G binding to Aβ (10-43); conditions: for binding affinity in words: inhibition of [14C]Chrysamine G binding to Aβ (10-43), compared with Chrysamine G
T1 construct: The 10-43 amino acid fragment of Aβ was synthesized; made in house; host or cells: chemical (FMOC) peptide synthesis, no expression host
Procedure: (§1) Binding assays were performed in 12×75 mm borosilicate glass tubes. […] To the above solution, 25 μl of a 0.36 mg/ml suspension of Aβ (10-43) in H2O was added and 10% ethanol was added to bring the volume to 950 μl. […] The binding mixture was incubated for 30 min at room temperature.
Ki is defined as IC50/(1+[L]/KD ), where [L] is the concentration of [^14C]

[2] = test system: rat pheochromocytoma (PC-12) cells; conditions: for effect on toxicity induced by 1 μM Aβ (25-35): MTT reduction (FIG. 14)
Procedure: Rat pheochromocytoma cells (PC-12) were grown in RPMI 1640 media with 10% fetal bovine serum. Approximately 5,000 exponentially growing cells were plated in 96-well plates in a volume of 100 μl of media and allowed to incubate at 37° C. overnight. […] The cells were incubated for 24 hrs prior to the addition of 13.3 μl of 5 mg/ml MTT (3,(4,5-dimethylthiazol-2-yl)2,5-diphenyltetrazolium bromide) in sterile phosphate buffered saline. After 4.5 hrs at 37° C., 100 μl of extraction buffer (20% w/v SDS in 50% DMF/water; pH adjusted to 4.7 with 2.5% of 80% acetic acid and 2.5% 1N HCl) was added and the plates were incubated overnight. Hansen et al., J. Immunol. Methods 119: 203 (1989). Color development was then measured at 560 nm. Maximum viability was defined as the absorbance of control wells to which only the 20 μl of distilled, deionized H2O was added. Maximum toxicity was defined by wells in which the cells were lysed by addition of 0.1% (final concentration) of Triton X-100.

[3] = guinea pigs; cited from earlier work
[4] = Octanol/water partitioning; assay type: physicochemical; conditions: for octanol/water partition coefficient: 1-octanol / phosphate buffered saline pH 7.4
Procedure: The mixture was then centrifuged at 1,000 g to facilitate the formation of two clear phases. […] Concentrations were determined after correction for the molar absorptivity differences in the two solvents and the partition coefficient expressed as the concentration in the octanol layer divided by the concentration in the aqueous layer. Experiments were done in triplicate.

[5] = test system: rat pheochromocytoma (PC-12) cells; conditions: previously reported; cited from earlier work
[6] = biological target: AD brain homogenates (Homo sapiens, UniProt P05067); assay: [14C]CG binding to AD brain homogenates
Procedure: (§2) Autopsy brain samples were obtained from the Neuropathology Core of the Alzheimer's Disease Research Center of the University of Pittsburgh. […] Brain samples from eight control (ages 58-75), eleven AD (ages 61-84), and two Down syndrome brains were studied. There were six high-plaque (>20 NPs/×200 magnification) and five low-plaque (<20 NPs/×200 magnification) AD brains. […] Autopsy samples were immediately frozen at −70° C. and stored at that temperature until homogenized. […] The Bielschowsky silver impregnation method was used to identify NPs and NFTs and Congo red staining was used to identify cerebral amyloid angiopathy.
(§3) Aliquots of 25-150 μl tissue (about 25-300 μg of protein by the method of Lowry et al., J. Biol, Chem. 193: 265 (1951)) were incubated in 12×75 mm borosilicate glass tubes at room temperature with 10-750 nM [^14C]CG (26.8 Ci/mole) in a final volume of 1.0 ml of 10% ethanol for 30 min at room temperature. The standard conditions employed about 150 μg of protein and 75 nM [^14C]CG for the cerebellar ratio studies and about 75 μg of protein and 150 nM [^14C]CG for the correlative studies with NPs, NFTS, and amyloid angiopathy. Ethanol was necessary to prevent the micelle formation which occurs with diazo dye derivatives, since the micelles are trapped by the filter even in the absence of tissue. Bound and free radioactivity were separated by vacuum filtration through Whatman GF/B filters using a Brandel M-24R Cell Harvester (Gaithersburg, Md.) followed by two 3-ml washes with 10% ethanol at room temperature. Filters were equilibrated overnight in 4 ml Cytoscint®-ES scintillant (ICN Biomedicals, Inc., Irvine, Calif.) in 7.0 ml plastic scintillation vials before counting. Saturable (specific) binding was defined as total binding minus residual (non-saturable) binding in the presence of 20 μM unlabelled CG. In all binding assays, incubations were done at least in triplicate and the results expressed as mean±standard error unless otherwise specified. Results were expressed either in absolute terms of fmol [^14C]CG bound/μg protein in a given brain area, or as a ratio of the fmol/μg protein in that brain area to the fmol/μg protein in the cerebellum of the same brain.

[7] = test system: AD brain homogenates; assay: [14C]CG binding to AD brain homogenates; conditions: for total binding, AD: high and low-plaque AD brains combined
Procedure: as §2, §3

[8] = in vivo; conditions: mouse
[9] = biological target: synthetic Aβ (10-43) peptide (Homo sapiens, UniProt P05067); assay: Scatchard analysis of Chrysamine G binding to synthetic Aβ (10-43)
Source text: Hilbich et al., J. Mol. Biol. 218: 149 (1991). The 10-43 amino acid fragment of Aβ was synthesized with 9-fluorenylmethyl chloroformate (FMOC) chemistry by the Peptide Synthesis Facility of the University of Pittsburgh. […] The peptide was further purified by the method of Hilbich et al. which, in brief, consisted of sequential size-exclusion chromatography on a Biogel P10 column (2×180 cm, 200-400 mesh, Biorad, Richmond, Calif.) in 70% formic acid followed by a second elution through a Biogel P4 column (2×180 cm, 200-400 mesh) in 1M acetic acid. Hilbich et al., J. Mol. Biol. 218: 149 (1991). The peptide was lyophilized and stored at −80° C. until used in the binding assays.
as §1

[10] = Tissue levels after i.v. injection of [14C]Chrysamine G in mice (blood-brain barrier, metabolism); assay type: in vivo, Swiss-Webster mice; conditions: brain and liver extracted 60 min after i.v. injection
Procedure: Mice were sacrificed by cervical dislocation at intervals of 15 min, 35 min, 1 hr, 4 hr, and 24 hr after injection. The carotid blood, brain, liver, and kidneys were rapidly obtained, weighed, and homogenized in distilled/deionized H2O using a ground glass homogenizer. An aliquot was weighed into an 18.0 ml plastic scintillation vial (Beckman Poly-Q-Vial) and counted after addition of 10.0 ml of scintillation cocktail (Cytoscint®-ES (ICN)) and overnight equilibration.
Brain and liver were then removed and extracted with a Folch procedure. Folch et al., J. Biol. Chem. 226: 447 (1957). In both tissues, over 95% of the extracted radioactivity was contained in the organic layer. The organic layer was evaporated to dryness, resuspended in a minimal amount of 10% methanol/90% ACN, and injected onto a silica column (Prep Nova Pak HR Silica, 7.8×300 mm, Waters, Milford, Mass.) and eluted isocratically with the same solvent. Under these conditions, 99% of the radioactivity is eluted in the solvent front, but most lipids are retained longer, making the fraction eluting in the solvent front suitable for injection onto the reverse-phase C4 column system described above. […] One minute fractions were collected and counted after addition of 10 ml of Cytoscint®-ES.

[11] = test system: control brain homogenates; assay: [14C]CG binding to control brain homogenates; design: species or system human
[12] = test system: Down's syndrome brain samples; assay: [14C]Chrysamine G binding to Down's syndrome brain samples; design: species or system human; conditions: two patients; ratio to cerebellum (FIG. 9C)
Source text: Down's syndrome patients all develop deposits of Aβ by their fourth decade and many develop AD. Wisniewski et al., Neurology 35: 957 (1985); Schapiro et al., Neurobiol. Aging 13, 723 (1992).

[13] = biological target: Aβ (10-43) (Homo sapiens, UniProt P05067); assay: Kinetics of [14C]Chrysamine G binding to Aβ (10-43)
Procedure: This mixture was vortexed and incubated for 30 min at room temperature.
Bennett, J. P. and Yamamura, H. I. in NEUROTRANSMITTER RECEPTOR BINDING (N.Y.: Raven Press 1985) pp. 61-89. […] The curve in FIG. 6C follows the equation: […]

[14] = Ki for inhibition of [14C]Chrysamine G binding to Aβ (10-43), Ki=IC50/(1+[L]/KD), KD 0.26 μM
[15] = PC-12 cells, Aβ (25-35), MTT reduction

Sequence of synthetic Aβ (10-43) peptide (P05067 681-714): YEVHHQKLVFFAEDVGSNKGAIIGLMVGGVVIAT
T1 sequence (P05067 681-714): as above
Sequence of AD brain homogenates (Homo sapiens, UniProt P05067) (P05067 18-770): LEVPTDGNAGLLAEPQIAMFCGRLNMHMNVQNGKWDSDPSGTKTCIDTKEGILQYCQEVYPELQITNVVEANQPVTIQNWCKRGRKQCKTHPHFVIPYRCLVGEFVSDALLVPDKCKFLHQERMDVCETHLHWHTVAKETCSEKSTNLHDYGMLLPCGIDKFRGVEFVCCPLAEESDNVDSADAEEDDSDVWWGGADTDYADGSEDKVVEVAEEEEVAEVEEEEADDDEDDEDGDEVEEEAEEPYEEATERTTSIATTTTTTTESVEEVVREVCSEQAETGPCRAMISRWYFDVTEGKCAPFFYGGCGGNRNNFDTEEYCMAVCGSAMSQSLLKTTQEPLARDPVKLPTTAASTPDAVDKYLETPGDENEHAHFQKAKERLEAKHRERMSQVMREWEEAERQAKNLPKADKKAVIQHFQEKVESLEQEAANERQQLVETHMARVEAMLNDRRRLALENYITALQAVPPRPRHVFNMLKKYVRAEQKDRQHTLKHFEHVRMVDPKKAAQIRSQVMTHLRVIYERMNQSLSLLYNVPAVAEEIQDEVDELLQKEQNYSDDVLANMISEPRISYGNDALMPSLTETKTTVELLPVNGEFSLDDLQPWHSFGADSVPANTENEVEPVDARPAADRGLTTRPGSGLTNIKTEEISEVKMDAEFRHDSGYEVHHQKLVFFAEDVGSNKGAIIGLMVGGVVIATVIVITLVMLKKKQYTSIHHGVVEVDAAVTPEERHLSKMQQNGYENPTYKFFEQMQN
Sequence of Aβ (10-43) (P05067 681-714): as the sequence (P05067 681-714) above

Ki [1, 14]: 1160 ± 190 nM | binding affinity in words [1]: one-third as potent as Chrysamine G
SMILES: O=C(O)c1cc(F)cc(N=Nc2ccc(-c3ccc(N=Nc4cc(F)cc(C(=O)O)c4O)cc3)cc2)c1O [(5-FSA)CG, 4,4′-bis(2-hydroxy-3-carboxy-5-fluorophenylazo)-biphenyl]

SMILES: Oc1ccc(N=Nc2ccc(-c3ccc(N=Nc4ccc(O)cc4)cc3)cc2)cc1 [phenol derivative]
binding affinity in words [1]: completely destroyed binding affinity | effect on toxicity induced by 1 μM Aβ (25-35) ([2]; PC-12 cells): no protective effects

Ki [1, 14]: 750 ± 90 nM | binding affinity in words [1]: about twice that of Chrysamine G
SMILES: Cc1cc(-c2cc(C)c(N=Nc3ccc(O)c(C(=O)O)c3)c(C)c2)cc(C)c1N=Nc1ccc(O)c(C(=O)O)c1 [tetramethyl analog of Chrysamine G, 4,4′-bis(3-carboxy-4-hydroxyphenylazo)-3,3′,5,5′-tetramethylbiphenyl]

SMILES: O=C(O)c1cc(N=Nc2ccc(-c3ccc(N=Nc4ccc(O)c(C(=O)O)c4)cc3S(=O)(=O)O)c(S(=O)(=O)O)c2)ccc1O [2,2′-(SO3)2CG]
binding affinity in words [1]: inactivity

decrease in affinity / loss of activity relative to Chrysamine G [1]: about 200 fold
SMILES: COC(=O)c1cc(N=Nc2ccc(-c3ccc(N=Nc4ccc(O)c(C(=O)OC)c4)cc3)cc2)ccc1O [CG(COOMe)2, 4,4′-bis(3-methoxycarbonyl-4-hydroxyphenylazo)-biphenyl]

Ki [1, 14]: 2820 nM and 2800 nM | octanol/water partition coefficient [4]: 0.665±0.037
SMILES: Nc1c(/N=N/c2ccc(-c3ccc(/N=N/c4cc(S(=O)(=O)O)c5ccccc5c4N)cc3)cc2)cc(S(=O)(=O)O)c2ccccc12 [Congo red, reference compound]
brain/kidney ratio [3]: approximately 0.07 | concentration achieving complete protection [5]: 20 µM | concentrations protecting against Aβ-induced toxicity [5]: over 2 μM

binding affinity in words [1]: about half that of Chrysamine G
SMILES: O=C(O)c1cc(N=Nc2ccc(-c3ccc(N=Nc4ccc(O)c(C(=O)O)c4)c(Br)c3)cc2Br)ccc1O [3,3′-Br2CG]

binding affinity in words [1]: total lack of binding activity
SMILES: O=C(O)c1ccccc1O [salicylic acid, reference compound]

decrease in affinity / loss of activity relative to Chrysamine G [1]: 7 fold
SMILES: O=C(O)c1cc(N=Nc2ccc(-c3ccc(N=Nc4ccc(O)c(C(=O)O)c4)c(C(=O)O)c3)cc2C(=O)O)ccc1O [3,3′-(COOH)2CG]

SMILES: O=C(O)c1cc(N=Nc2ccc(-c3ccc(N=Nc4ccc(O)c(C(=O)O)c4)cc3)cc2)ccc1O [Chrysamine G, 4,4′-bis(3-carboxy-4-hydroxyphenylazo)-biphenyl]
Bmax (pmol/μg prot) ([6]; AD (n = 5)): 0.784 ± .061 pmol/μg prot | Bmax, typical AD brain sample (FIG. 4B) ([6]; AD brain sample with 48 NP/×200 magnification): 790 fmol/μg protein | saturable (specific) binding as share of total binding ([7]; AD brain homogenates): 60-80% | total binding, AD ([7]; Cerebellum): 73 ± 9 (n = 11) fmol/μg protein | total binding, AD ([7]; Frontal Pole): 124 ± 16 (n = 10) fmol/μg protein | total binding, AD ([7]; Head of Caudate): 123 ± 22 (n = 7) fmol/μg protein | total binding, AD ([7]; Inferior Parietal): 137 ± 19 (n = 11) fmol/μg protein | total binding, AD ([7]; Occipital): 95 ± 12 (n = 11) fmol/μg protein | total binding, AD ([7]; Superior Temporal): 121 ± 14 (n = 11) fmol/μg protein | total binding, AD ([7]; Superior/Middle Frontal): 130 ± 21 (n = 11) fmol/μg protein | Bmax in AD brain higher than control ([7]; not significant (p=0.09)): 36% | KD in AD brain lower than control ([7]; not significant (p=0.29)): 16% | LD50 at 72 h [8]: > 100 mg/kg | Ki [1, 14]: 370 ± 40 nM | energy of binding ([1]; ΔG=−RT ln Keq, Keq=1/KD≈1/Ki): roughly 38 KJ/mole | Kd ([9]; Scatchard, two independent binding site model, read-out: KD, higher affinity component): 257 nM and 260 nM | Bmax, higher affinity component ([9]; Scatchard, two-site model): 3.18 nmoles Chrysamine G/mg Aβ (10-43) | Bmax, lower affinity component ([9]; Scatchard, two-site model, less well defined): 18.7 nmoles Chrysamine G/mg Aβ (10-43) | Kd ([9]; whether measured by Scatchard analysis, kinetic methods, or inhibition of binding, read-out: dissociation constant): 250 to 400 nM | MTT reduction with compound alone versus control [2]: no significant difference | concentration at which the protective effect is evident [2, 15]: 0.2 µM | concentration range showing effects [2, 15]: 0.1 to 1.0 µM | effect on toxicity induced by 1 μM Aβ (25-35) ([2]; PC-12 cells): protective effects at 0.1 and 1 μM | recovered radioactivity co-eluting with authentic Chrysamine G on reverse phase HPLC [10]: > 95% | Bmax, typical control brain sample (FIG. 4B) [11]: 614 fmol/μg protein | total binding, Control ([11]; Cerebellum): 75 ± 13 (n = 8) fmol/μg protein | Bmax (pmol/μg prot) ([11]; Control (n = 6)): 0.576 ± .092 pmol/μg prot | Kd ([11]; Control (n = 6), read-out: KD): 470 ± 49 nM | total binding, Control ([11]; Frontal Pole): 58 ± 8 (n = 6) fmol/μg protein | total binding, Control ([11]; Head of Caudate): 73 ± 11 (n = 4) fmol/μg protein | total binding, Control ([11]; Inferior Parietal): 76 ± 13 (n = 8) fmol/μg protein | total binding, Control ([11]; Occipital): 64 ± 16 (n = 8) fmol/μg protein | total binding, Control ([11]; Superior Temporal): 66 ± 17 (n = 8) fmol/μg protein | total binding, Control ([11]; Superior/Middle Frontal): 54 ± 10 (n = 8) fmol/μg protein | Kd ([11]; read-out: KD, typical control brain sample (FIG. 4B)): 480 nM | binding in Down's syndrome brain compared with control [12]: above the control range | times more lipophilic than Congo red ([4]; from partition coefficients): approximately 90 | time by which association is essentially complete ([13]; [Chrysamine G]=112 μM): ≤ 1 min | Kd ([13]; from kinetic constants, read-out: KD=k−1/k1): 340 nM

binding affinity in words [1]: about half that of Chrysamine G | octanol/water partition coefficient [4]: 112.9±7.3
SMILES: O=C(O)c1cc(N=Nc2ccc(-c3ccc(N=Nc4ccc(O)c(C(=O)O)c4)c(I)c3)cc2I)ccc1O [3,3′-I2CG]

SMILES: O=C(O)c1cc(N=Nc2ccccc2)ccc1O [aniline derivative]
energy of binding [1]: 5.5 kcal/mol | Ki ([1]; read-out: Ki for inhibition of [14C]Chrysamine G binding to Aβ (10-43)): 73000 nM

binding affinity in words [1]: about half that of Chrysamine G
SMILES: O=C(O)c1cc(N=Nc2ccc(-c3ccc(N=Nc4ccc(O)c(C(=O)O)c4)c(Cl)c3)cc2Cl)ccc1O [3,3′-Cl2CG]

Source: patent publication US6417178B1, “Amyloid binding nitrogen-linked compounds for the antemortem diagnosis of alzheimer's disease, in vivo imaging and prevention of amyloid deposits” (University of Pittsburgh, priority 1994, dated 2002)
